Source: patent publication US8759334B2, “Compounds useful for the treatment of metabolic and inflammatory diseases” (Galapagos NV, priority 2011, dated 2014)

Tests used:
[1] = biological target: T1, GPR43 (Homo sapiens, UniProt O15552); assay: Calcium mobilization assay without probenecid; type: cell-based; conditions: GPR43 stably expressing cells, triggered with sodium acetate at EC80, read-out: GPR43 assay without probenicid IC50
T1 construct: expressed in transfected cells
T1 sequence (O15552 1-330): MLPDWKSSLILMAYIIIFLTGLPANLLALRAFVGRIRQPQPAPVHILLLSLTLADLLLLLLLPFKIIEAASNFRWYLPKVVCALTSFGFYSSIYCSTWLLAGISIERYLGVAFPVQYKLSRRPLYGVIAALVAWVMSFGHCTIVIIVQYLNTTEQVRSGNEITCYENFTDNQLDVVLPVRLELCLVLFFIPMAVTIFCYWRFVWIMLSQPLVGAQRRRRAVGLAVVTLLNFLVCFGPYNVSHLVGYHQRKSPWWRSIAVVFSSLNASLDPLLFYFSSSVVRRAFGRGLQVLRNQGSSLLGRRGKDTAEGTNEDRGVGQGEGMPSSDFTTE
Method: The following assay can be used for determination of GPR43 activation. The assay measures intracellular calcium release induced by activation of GPR43. On day 1, GPR43 stably expressing cells were detached with mild trypsinization (Trypsin, 0.25% with EDTA 4Na, 5× diluted in PBS) centrifuged at 1000 rpm for 5 min and resuspended at 6.000 cells/25 μL medium (DMEM supplemented with 10% FBS, 10 μg/mL puromycin and 1% Pen/Strep). The cells were distributed in poly-D-lysine coated 384 well plates (black with clear bottom, 25 μL/well) and incubated overnight at 37° C. 10% CO2. On day 2, 25 μL of a fluorescent Ca^2+ indicator (Calcium 4 assay; Molecular Devices) was added on top of the cells and incubated for 2 h at 37° C. Subsequently, compounds at increasing concentration (10 μL/well) were added to the plate and incubated for 15 min at 37° C. Finally the cells were triggered with sodium acetate at EC80 concentration (concentration which gives 80% of the activity of the GPR43) and the Ca-flux was measured simultaneously to the trigger injection on a fluorescence plate reader (FlexStation3), this measures the antagonist activity of the compounds. To measure agonist activity of the compounds, compound was added to the well and the Ca-flux was measured simultaneously to the injection of compound.

[2] = biological target: T1, GPR43; assay: Calcium mobilization assay with probenecid; type: cell-based; conditions: GPR43 stably expressing cells; triggered with sodium acetate at EC80; 2.5 mM probenecid; read-out: GPR43 assay with probenicid IC50
In short: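 […] being added at rising concentrations to a GPR43 stable line. Before this, cells were dye-loaded (Calcium 4 with 2.5 mM probenecid) for 2 h at 37 °C after overnight plating.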

Row | Structure (SMILES) | IC50 [1] [nM] | IC50 [2] [nM]
1 | CC1(C(=O)NCc2ccc(Cl)cc2)CCN1C(=O)Oc1ccc(Cl)cc1 (stereo not drawn) [Compound 2, 2-(4-Chloro-benzylcarbamoyl)-2-methyl-azetidine-1-carboxylic acid 4-chloro-phenyl ester] | > 1000 | > 1000
2 | CC1(C(=O)Nc2ccc(Cl)cc2)CCN1C(=O)Cc1ccc(Cl)cc1Cl (stereo not drawn) [Compound 4, 1-[2-(2,4-Dichloro-phenyl)-acetyl]-2-methyl-azetidine-2-carboxylic acid (4-chloro-phenyl)-amide] | > 1000 | > 1000
3 | Cc1cc(C)cc(CC(=O)N2CCC2(C)C(=O)N(C)Cc2cccc(Cl)c2)c1 (stereo not drawn) [Compound 5, 1-[2-(3,5-Dimethyl-phenyl)-acetyl]-2-methyl-azetidine-2-carboxylic acid (3-chloro-benzyl)-methyl-amide] | > 1000 | > 1000
4 | Cc1ccc(CN(C)C(=O)C2(C)CCN2C(=O)Cc2cc(C)cc(C)c2)cc1 (stereo not drawn) [Compound 6, 1-[2-(3,5-Dimethyl-phenyl)-acetyl]-2-methyl-azetidine-2-carboxylic acid methyl-(4-methyl-benzyl)-amide] | 501 to 1000 | > 1000
5 | Cc1cc(C)cc(CC(=O)N2CCC2(C)C(=O)N(C)Cc2ccc(C(F)(F)F)cc2)c1 (stereo not drawn) [Compound 7, 1-[2-(3,5-Dimethyl-phenyl)-acetyl]-2-methyl-azetidine-2-carboxylic acid methyl-(4-trifluoromethyl-benzyl)-amide] | 101 to 500 | 101 to 500
6 | CN(Cc1ccc(Cl)cc1)C(=O)C1(C)CCN1C(=O)Cc1ccccc1Cl (stereo not drawn) [Compound 9, 1-[2-(2-Chloro-phenyl)-acetyl]-2-methyl-azetidine-2-carboxylic acid (4-chloro-benzyl)-methyl-amide] | > 1000 | > 1000
7 | CN(Cc1ccc(Cl)cc1)C(=O)C1(C)CCN1C(=O)Cc1cccc(Cl)c1 (stereo not drawn) [Compound 10, 1-[2-(3-Chloro-phenyl)-acetyl]-2-methyl-azetidine-2-carboxylic acid (4-chloro-benzyl)-methyl-amide] | > 1000 | > 1000
8 | CN(Cc1ccc(Cl)cc1)C(=O)C1(C)CCN1C(=O)Cc1ccc(Cl)cc1 (stereo not drawn) [Compound 11] | > 1000 | > 1000
9 | CN(Cc1ccc(Cl)cc1)C(=O)C1(C)CCN1C(=O)Cc1ccc(F)c(F)c1 (stereo not drawn) [Compound 12, 1-[2-(3,4-Difluoro-phenyl)-acetyl]-2-methyl-azetidine-2-carboxylic acid (4-chloro-benzyl)-methyl-amide] | > 1000 | > 1000
10 | CN(Cc1ccc(Cl)cc1)C(=O)C1(C)CCN1C(=O)Cc1ccc(-c2ccc(F)cc2)cc1 (stereo not drawn) [Compound 15, 1-[2-(4′-Fluoro-biphenyl-4-yl)-acetyl]-2-methyl-azetidine-2-carboxylic acid (4-chloro-benzyl)-methyl-amide] | > 1000 | > 1000
11 | CN(Cc1ccc(Cl)cc1)C(=O)C1(C)CCN1C(=O)Cc1ccccc1OCc1ccccc1 (stereo not drawn) [Compound 16, 1-[2-(2-Benzyloxy-phenyl)-acetyl]-2-methyl-azetidine-2-carboxylic acid (4-chloro-benzyl)-methyl-amide] | > 1000 | > 1000
12 | CN(Cc1ccc(Cl)cc1)C(=O)C1(C)CCN1C(=O)Cc1ccccc1I (stereo not drawn) [Compound 17, 1-[2-(2-Iodo-phenyl)-acetyl]-2-methyl-azetidine-2-carboxylic acid (4-chloro-benzyl)-methyl-amide] | > 1000 | > 1000
13 | CN(Cc1ccc(Cl)cc1)C(=O)C1(C)CCN1C(=O)Cc1ccc(Cl)c(Cl)c1 (stereo not drawn) [Compound 18, 1-[2-(3,4-Dichloro-phenyl)-acetyl]-2-methyl-azetidine-2-carboxylic acid (4-chloro-benzyl)-methyl-amide] | > 1000 | > 1000
14 | CN(Cc1ccc(Cl)cc1)C(=O)C1(C)CCN1C(=O)Cc1ccc(-c2ccccc2)cc1 (stereo not drawn) [Compound 20, 1-(2-Biphenyl-4-yl-acetyl)-2-methyl-azetidine-2-carboxylic acid (4-chloro-benzyl)-methyl-amide] | > 1000 | > 1000
15 | CN(Cc1ccc(Cl)cc1)C(=O)C1(C)CCN1C(=O)Cc1ccc(-c2cccc(Cl)c2)cc1 (stereo not drawn) [Compound 21, 1-[2-(3′-Chloro-biphenyl-4-yl)-acetyl]-2-methyl-azetidine-2-carboxylic acid (4-chloro-benzyl)-methyl-amide] | > 1000 | > 1000
16 | CN(Cc1ccc(Cl)cc1)C(=O)C1(C)CCN1C(=O)Cc1ccc(-c2cccc(C#N)c2)cc1 (stereo not drawn) [Compound 22, 1-[2-(3′-Cyano-biphenyl-4-yl)-acetyl]-2-methyl-azetidine-2-carboxylic acid (4-chloro-benzyl)-methyl-amide] | > 1000 | > 1000
17 | COc1ccc(-c2ccc(CC(=O)N3CCC3(C)C(=O)N(C)Cc3ccc(Cl)cc3)cc2)cc1 (stereo not drawn) [Compound 23, 1-[2-(4′-Methoxy-biphenyl-4-yl)-acetyl]-2-methyl-azetidine-2-carboxylic acid (4-chloro-benzyl)-methyl-amide] | > 1000 | > 1000
18 | CN(Cc1ccc(Cl)cc1)C(=O)C1(C)CCN1C(=O)Cc1ccc(-c2ccc(C#N)cc2)cc1 (stereo not drawn) [Compound 24, 1-[2-(4′-Cyano-biphenyl-4-yl)-acetyl]-2-methyl-azetidine-2-carboxylic acid (4-chloro-benzyl)-methyl-amide] | > 1000 | > 1000
19 | Cc1ccccc1-c1ccc(CC(=O)N2CCC2(C)C(=O)N(C)Cc2ccc(Cl)cc2)cc1 (stereo not drawn) [Compound 25, 2-Methyl-1-[2-(2′-methyl-biphenyl-4-yl)-acetyl]-azetidine-2-carboxylic acid (4-chloro-benzyl)-methyl-amide] | > 1000 | > 1000
20 | COC(=O)c1cccc(-c2ccc(CC(=O)N3CCC3(C)C(=O)N(C)Cc3ccc(Cl)cc3)cc2)c1 (stereo not drawn) [Compound 26, methyl 4′-(2-(2-((4-chlorobenzyl)(methyl)carbamoyl)-2-methylazetidin-1-yl)-2-oxoethyl)biphenyl-3-carboxylate] | > 1000 | > 1000
21 | Cc1cc(C)cc(CC(=O)N2CCC2(C)C(=O)N(CCO)Cc2ccc(Cl)cc2)c1 (stereo not drawn) [Compound 47, 1-[2-(3,5-Dimethyl-phenyl)-acetyl]-2-methyl-azetidine-2-carboxylic acid (4-chloro-benzyl)-(2-hydroxy-ethyl)-amide] | 101 to 500 | 
22 | COC(=O)CCN(Cc1ccc(Cl)cc1)C(=O)C1(C)CCN1C(=O)Cc1cc(C)cc(C)c1 (stereo not drawn) [Compound 62, 3-((4-Chloro-benzyl)-{1-[2-(3,5-dimethyl-phenyl)-acetyl]-2-methyl-azetidine-2-carbonyl}-amino)-propionic acid methyl ester] | 501 to 1000 | 
23 | Cc1cc(C)cc(CC(=O)N2CCC2(C)C(=O)N(CCCC(=O)O)Cc2ccc(Cl)cc2)c1 (stereo not drawn) [Compound 64, 4-((4-Chloro-benzyl)-{1-[2-(3,5-dimethyl-phenyl)-acetyl]-2-methyl-azetidine-2-carbonyl}-amino)-butyric acid] | 101 to 500 | 
24 | Cc1cc(C)cc(CC(=O)N2CCC2(C)C(=O)N(CCC(=O)O)Cc2ccc(Cl)cc2)c1 (stereo not drawn) [Compound 65, 3-((4-chloro-benzyl)-{1-[2-(3,5-dimethyl-phenyl)-acetyl]-2-methyl-azetidine-2-carbonyl}-amino)-propionic acid] | > 1000 | 
25 | CC1(C(=O)N(CCCO)Cc2ccc(Cl)cc2)CCN1C(=O)Cc1csc2ccccc12 (stereo not drawn) [Compound 70, 1-(2-Benzo[b]thiophen-3-yl-acetyl)-2-methyl-azetidine-2-carboxylic acid (4-chloro-benzyl)-(3-hydroxy-propyl)-amide] | 101 to 500 | 
26 | Cc1cc(C)cc(CC(=O)N2CC[C@@]2(C)C(=O)N(CC(=O)O)Cc2ccc(Cl)cc2)c1 [Compound 81a, ((4-Chloro-benzyl)-{(S)-1-[2-(3,5-dimethyl-phenyl)-acetyl]-2-methyl-azetidine-2-carbonyl}-amino)-acetic acid] | > 1000 | 
27 | CN(Cc1ccc(Cl)cc1)C(=O)C1(C)CCN1C(=O)Cc1csc2ccc(Cl)cc12 (stereo not drawn) [Compound 92, 1-[2-(5-Chloro-benzo[b]thiophen-3-yl)-acetyl]-2-methyl-azetidine-2-carboxylic acid (4-chloro-benzyl)-methyl-amide] | > 1000 | 
28 | Cc1ccc2scc(CC(=O)N3CCC3(C)C(=O)N(C)Cc3ccc(Cl)cc3)c2c1 (stereo not drawn) [Compound 93, 1-[2-(5-Methyl-benzo[b]thiophen-3-yl)-acetyl]-2-methyl-azetidine-2-carboxylic acid (4-chloro-benzyl)-methyl-amide] | > 1000 | 
